Paper PMC3105188 (The Journal of steroid biochemistry and molecular biology, 2011)
Positions count from the first letter of the chain named. “Also recorded” adds a separate entry of the source. Read-outs that look alike come from different tables or passages of the source.

Experiments:
wild-type hVDR [1] = target: T1, wild-type hVDR (Homo sapiens, UniProt P11473); format: cell-based
T1 sequence (P11473 1-427): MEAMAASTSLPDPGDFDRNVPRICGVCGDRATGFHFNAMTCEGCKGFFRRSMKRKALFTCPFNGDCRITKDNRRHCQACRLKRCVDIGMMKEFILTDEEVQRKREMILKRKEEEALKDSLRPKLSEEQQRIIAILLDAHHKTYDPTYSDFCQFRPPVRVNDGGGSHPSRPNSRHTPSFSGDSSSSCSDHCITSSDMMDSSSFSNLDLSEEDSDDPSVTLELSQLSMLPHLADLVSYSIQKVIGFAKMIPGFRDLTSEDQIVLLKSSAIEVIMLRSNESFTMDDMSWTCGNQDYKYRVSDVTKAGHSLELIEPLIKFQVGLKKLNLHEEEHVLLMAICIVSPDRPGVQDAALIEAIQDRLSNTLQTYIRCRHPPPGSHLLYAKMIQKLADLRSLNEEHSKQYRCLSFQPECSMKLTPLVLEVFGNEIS

hVDR mutant H305F [2] = target: T2, hVDR mutant H305F (Homo sapiens, UniProt P11473, H305F); format: cell-based; settings: HEK293T
T2 sequence (P11473 127-423 H305F limits assumed): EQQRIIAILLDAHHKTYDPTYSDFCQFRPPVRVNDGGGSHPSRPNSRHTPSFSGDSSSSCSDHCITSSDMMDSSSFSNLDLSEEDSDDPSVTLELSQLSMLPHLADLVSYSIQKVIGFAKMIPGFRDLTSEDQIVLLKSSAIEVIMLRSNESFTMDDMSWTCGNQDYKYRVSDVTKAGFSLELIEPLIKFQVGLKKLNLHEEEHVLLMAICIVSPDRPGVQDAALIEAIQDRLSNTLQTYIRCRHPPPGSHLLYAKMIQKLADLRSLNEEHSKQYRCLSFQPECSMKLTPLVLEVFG

wild-type hVDR [3] = target: T3, wild-type hVDR (Homo sapiens, UniProt P11473); format: cell-based; settings: HEK293T
T3 sequence (P11473 127-423 limits assumed): T2 sequence (P11473 127-423 H305F limits assumed) with F179H

hVDR mutant H305Y [4] = target: T4, hVDR mutant H305Y (Homo sapiens, UniProt P11473, H305Y); format: cell-based; settings: HEK293T
T4 sequence (P11473 127-423 H305Y limits assumed): T2 sequence (P11473 127-423 H305F limits assumed) with F179Y

hVDR mutant H305F/H397Y [5] = target: T5, hVDR mutant H305F/H397Y (Homo sapiens, UniProt P11473, H305F/H397Y); format: cell-based
T5 sequence (P11473 127-423 H305F/H397Y limits assumed): T2 sequence (P11473 127-423 H305F limits assumed) with H271Y

hVDR mutant H305F [6] = target: hVDR mutant H305F (Homo sapiens, UniProt P11473, H305F); test: Chemical complementation, yeast PJ69-4A liquid quantitation growth assay; format: cell-based
Target sequence in this assay (Q9Y6Q9 whole entry partner, one chain of several): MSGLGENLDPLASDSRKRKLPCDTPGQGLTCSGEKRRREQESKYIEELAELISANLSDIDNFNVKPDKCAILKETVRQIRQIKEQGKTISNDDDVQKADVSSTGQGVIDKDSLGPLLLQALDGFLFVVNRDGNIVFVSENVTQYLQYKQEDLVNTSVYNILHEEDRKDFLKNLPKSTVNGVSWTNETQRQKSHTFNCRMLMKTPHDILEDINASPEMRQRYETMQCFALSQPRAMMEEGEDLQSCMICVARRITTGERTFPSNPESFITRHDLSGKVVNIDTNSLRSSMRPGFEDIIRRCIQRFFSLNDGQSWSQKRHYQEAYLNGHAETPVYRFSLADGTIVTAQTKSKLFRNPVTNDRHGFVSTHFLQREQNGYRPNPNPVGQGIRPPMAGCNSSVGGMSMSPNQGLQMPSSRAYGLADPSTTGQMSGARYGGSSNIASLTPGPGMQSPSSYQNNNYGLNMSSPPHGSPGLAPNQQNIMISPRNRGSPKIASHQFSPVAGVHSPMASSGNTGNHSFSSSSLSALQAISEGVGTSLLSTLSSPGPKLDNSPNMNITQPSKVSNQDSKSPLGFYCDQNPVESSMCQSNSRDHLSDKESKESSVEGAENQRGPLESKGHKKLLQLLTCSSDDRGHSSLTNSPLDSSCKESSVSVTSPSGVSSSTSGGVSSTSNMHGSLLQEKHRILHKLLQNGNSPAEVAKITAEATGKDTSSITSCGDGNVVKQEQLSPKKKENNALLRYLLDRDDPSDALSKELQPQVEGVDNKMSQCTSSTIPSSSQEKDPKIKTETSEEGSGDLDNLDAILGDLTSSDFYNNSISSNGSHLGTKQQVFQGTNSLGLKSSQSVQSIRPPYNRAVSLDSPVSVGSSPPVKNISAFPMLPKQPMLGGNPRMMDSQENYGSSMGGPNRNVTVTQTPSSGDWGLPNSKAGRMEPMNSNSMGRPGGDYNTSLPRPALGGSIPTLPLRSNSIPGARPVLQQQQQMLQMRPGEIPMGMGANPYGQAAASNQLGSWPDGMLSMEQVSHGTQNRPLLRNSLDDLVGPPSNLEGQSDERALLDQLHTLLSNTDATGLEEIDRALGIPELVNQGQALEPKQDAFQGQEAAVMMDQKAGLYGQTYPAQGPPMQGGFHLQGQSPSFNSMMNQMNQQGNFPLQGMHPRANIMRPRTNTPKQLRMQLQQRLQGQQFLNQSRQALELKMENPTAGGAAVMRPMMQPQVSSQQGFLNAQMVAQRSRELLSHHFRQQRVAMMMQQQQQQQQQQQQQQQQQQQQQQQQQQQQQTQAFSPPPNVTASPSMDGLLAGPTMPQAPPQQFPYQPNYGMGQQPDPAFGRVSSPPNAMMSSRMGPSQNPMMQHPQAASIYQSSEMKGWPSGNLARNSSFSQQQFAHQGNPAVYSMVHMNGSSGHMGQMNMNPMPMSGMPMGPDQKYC

hVDR mutant H305Y [7] = target: hVDR mutant H305Y (Homo sapiens, UniProt P11473, H305Y); test: as above; format: cell-based
Target sequence in this assay (P11473 127-423 H305Y limits assumed): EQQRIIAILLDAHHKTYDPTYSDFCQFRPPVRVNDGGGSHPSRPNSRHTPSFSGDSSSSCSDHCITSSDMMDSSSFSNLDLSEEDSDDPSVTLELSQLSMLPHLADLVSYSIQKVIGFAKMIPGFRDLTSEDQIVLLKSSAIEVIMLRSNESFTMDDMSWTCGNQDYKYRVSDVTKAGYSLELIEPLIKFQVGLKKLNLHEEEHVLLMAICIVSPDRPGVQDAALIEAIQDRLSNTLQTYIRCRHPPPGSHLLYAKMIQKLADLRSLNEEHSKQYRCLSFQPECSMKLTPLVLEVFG
Target sequence in this assay (Q9Y6Q9 whole entry partner): as the sequence (Q9Y6Q9 whole entry partner, one chain of several) above

hVDR mutant H305F/H397Y [8] = target: hVDR mutant H305F/H397Y (Homo sapiens, UniProt P11473, H305F/H397Y); settings: adenine selective media (-ALW)
Target sequence in this assay (P11473 127-423 H305F/H397Y limits assumed): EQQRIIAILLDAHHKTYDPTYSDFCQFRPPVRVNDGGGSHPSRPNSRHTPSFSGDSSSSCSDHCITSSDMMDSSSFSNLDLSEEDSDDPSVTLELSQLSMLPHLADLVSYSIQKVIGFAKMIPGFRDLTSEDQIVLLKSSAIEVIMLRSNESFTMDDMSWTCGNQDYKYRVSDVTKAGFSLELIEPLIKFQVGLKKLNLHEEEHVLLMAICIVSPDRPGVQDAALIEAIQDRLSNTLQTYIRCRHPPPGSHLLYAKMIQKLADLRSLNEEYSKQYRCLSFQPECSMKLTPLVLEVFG
Target sequence in this assay (Q9Y6Q9 whole entry partner): as the sequence (Q9Y6Q9 whole entry partner, one chain of several) above

hVDR H305F = settings: antagonist on wild-type hVDR; cited from earlier work
[9] = histidine selective media (data not shown)

SMILES: C=C1CC[C@H](O)C/C1=C/C=C1\CCC[C@]2(C)[C@@H]([C@H](C)CCCC(C)C)CC[C@@H]12 [Cholecalciferol, cholecalciferol]
- ligand-activated growth (in words) (wild-type hVDR [1]; Figure 2B, any ligand concentration): No ligand activated growth; also recorded: not observed
- ligand concentration at which activation is displayed (hVDR mutant H305F [2]): 1 µM
- activation of receptor (in words) (wild-type hVDR [3]): does not activate; also recorded: no activation
- ligand concentration at which activation is displayed (hVDR mutant H305Y [4]): 1 µM
- lowest ligand concentration giving activation (hVDR mutant H305F/H397Y [5]; mammalian cell assays): 100 nM

SMILES: C[C@H](CCC(=O)O)[C@H]1CC[C@H]2[C@@H]3CC[C@@H]4C[C@H](O)CC[C@]4(C)[C@H]3CC[C@]12C [Lithocholic Acid, lithocholic acid]
- ligand-activated growth (in words) (wild-type hVDR [1]; adenine selective media (-ALW)): no growth
- ligand concentration at which growth is observed (wild-type hVDR [1]; histidine selective media (SC-HLW + 0.1 mM 3AT), OD 630): 10 µM
- ligand concentration at which growth is observed (hVDR mutant H305F [6]; adenine selective media (-ALW)): 1 µM
- ligand concentration at which growth is observed (hVDR mutant H305F [6]; [9]): 0.1 µM
- ligand concentration at which activation is displayed (wild-type hVDR [3]): 100 µM
- ligand concentration at which activation is displayed (hVDR mutant H305Y [4]): 1 µM
- ligand concentration at which activation is displayed (hVDR mutant H305F/H397Y [5]; HEK293T): 1 µM
- ligand concentration at which growth is observed (hVDR mutant H305Y [7]; adenine selective media (-ALW)): 1 µM
- ligand concentration at which growth is observed (hVDR mutant H305Y [7]; [9]): 0.1 µM
- ligand concentration at which growth/activation is observed (hVDR mutant H305F/H397Y [8]): 1 µM

SMILES: C=C1C[C@H](C[C@@H](C)[C@H]2CC[C@H]3/C(=C/C=C4/C[C@@H](O)C[C@H](O)C4=C)CCC[C@]23C)OC1=O [MK, (23S)-25-dehydro-1alpha(OH)-vitamin D3-26,23-lactone]
- functional character with the H305F mutation (in words) (hVDR H305F): superagonist
